The text below walks through data of US8993756B2 (Merck Sharp & Dohme Corp., priority 2011, dated 2015).

In one test the target is JAK2 (Homo sapiens (Human), UniProt O60674). As to the kind of experiment: Jak Biochemical HTRF Assay (JAK2). The settings on record: recombinant GST-tagged catalytic domain, [ATP] 8.5 μM. (Time-resolved FRET reads energy transfer from a long-lived donor to a nearby acceptor.)
A further test deals with JAK3 (Homo sapiens (Human), UniProt P52333). As to the kind of experiment: Jak Biochemical HTRF Assay (JAK3). The settings on record: recombinant GST-tagged catalytic domain, [ATP] 2.9 μM.
Chain of JAK3 (P52333 822-1111): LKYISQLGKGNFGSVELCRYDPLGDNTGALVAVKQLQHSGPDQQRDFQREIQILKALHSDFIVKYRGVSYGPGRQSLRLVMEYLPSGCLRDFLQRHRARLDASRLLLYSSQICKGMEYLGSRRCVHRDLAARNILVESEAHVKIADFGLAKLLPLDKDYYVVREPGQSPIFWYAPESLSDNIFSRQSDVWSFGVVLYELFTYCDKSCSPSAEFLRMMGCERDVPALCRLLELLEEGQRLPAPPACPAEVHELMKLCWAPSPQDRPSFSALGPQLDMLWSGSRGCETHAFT

Chain of JAK2 (O60674 849-1124): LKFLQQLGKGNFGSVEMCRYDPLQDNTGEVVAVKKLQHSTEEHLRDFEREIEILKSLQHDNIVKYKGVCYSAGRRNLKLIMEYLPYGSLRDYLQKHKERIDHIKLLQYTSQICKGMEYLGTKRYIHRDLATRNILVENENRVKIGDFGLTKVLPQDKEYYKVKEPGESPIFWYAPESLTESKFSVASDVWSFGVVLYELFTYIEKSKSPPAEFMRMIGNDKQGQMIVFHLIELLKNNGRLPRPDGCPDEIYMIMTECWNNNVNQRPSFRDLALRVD

Broadly, the IC50 is the concentration needed to halve the response being measured. In the case of `C=CC(=O)Nc1cccc(-c2ncnc3[nH]cc(C(=O)OCC)c23)c1C` [Example 4-12, ethyl 4-[3-(acryloylamino)-2-methylphenyl]-7H-pyrrolo[2,3-d]pyrimidine-5-carboxylate], the results for the IC50 at JAK2 and on JAK3 were > 1500 nM and 0.19 nM, respectively.

As to `C=C(C)C(=O)Nc1cccc(-c2ncnc3[nH]cc(C(=O)OCC)c23)c1C` [Example 4-13, ethyl 4-{2-methyl-3-[(2-methylacryloyl)amino]phenyl}-7H-pyrrolo[2,3-d]pyrimidine-5-carboxylate], the IC50 is > 500 nM at JAK2 (given as range class) and 10 to 500 nM at JAK3 (given as range class).

For the molecule `C=CC(=O)Nc1cc(-c2ncnc3[nH]cc(C(=O)OCC)c23)ccc1Cl` [Example 4-14, ethyl 4-[3-(acryloylamino)-4-chlorophenyl]-7H-pyrrolo[2,3-d]pyrimidine-5-carboxylate], the figures for the half-inhibitory concentration (IC50) at JAK2 and at JAK3 were > 1500 nM and 0.066 nM, respectively.

In the case of `C=CC(=O)Nc1cc(-c2ncnc3[nH]cc(C(=O)OCC)c23)ccc1OC` [Example 4-15, ethyl 4-[3-(acryloylamino)-4-methoxyphenyl]-7H-pyrrolo[2,3-d]pyrimidine-5-carboxylate], the values for the IC50 at JAK2 and at JAK3 were > 1500 nM and 0.11 nM, respectively.

Regarding `C=C(C)C(=O)Nc1cc(-c2ncnc3[nH]cc(C(=O)OCC)c23)ccc1F` [Example 4-16, ethyl 4-{4-fluoro-3-[(2-methylacryloyl)amino]phenyl}-7H-pyrrolo[2,3-d]pyrimidine-5-carboxylate], the IC50 is > 1500 nM on JAK2 and 0.07 nM at JAK3.

As for `C=C(C)C(=O)Nc1cc(-c2ncnc3[nH]cc(C(=O)OCC)c23)ccc1OC` [Example 4-17, ethyl 4-{4-methoxy-3-[(2-methylacryloyl)amino]phenyl}-7H-pyrrolo[2,3-d]pyrimidine-5-carboxylate], the results for the IC50 on JAK2 and at JAK3 were > 1500 nM and 0.11 nM, respectively.

As for `C=C(C)C(=O)Nc1ccc(F)c(-c2ncnc3[nH]cc(C(=O)OCC)c23)c1` [Example 4-18, ethyl 4-{2-fluoro-5-[(2-methylacryloyl)amino]phenyl}-7H-pyrrolo[2,3-d]pyrimidine-5-carboxylate], the IC50 at JAK2 is > 1500 nM; on JAK3, 0.11 nM.

With `C=C(C)C(=O)Nc1cc(F)cc(-c2ncnc3[nH]cc(C(=O)OCC)c23)c1` [Example 4-19, ethyl 4-{3-fluoro-5-[(2-methylacryloyl)amino]phenyl}-7H-pyrrolo[2,3-d]pyrimidine-5-carboxylate], the IC50 at JAK2 is > 1500 nM; at JAK3, 0.05 nM.

With `C=CC(=O)N1CCc2ccc(-c3ncnc4[nH]cc(C(=O)OCC)c34)cc21` [Example 4-20, ethyl 4-(1-acryloyl-2,3-dihydro-1H-indol-6-yl)-7H-pyrrolo[2,3-d]pyrimidine-5-carboxylate], the figures for the IC50 at JAK2 and on JAK3 were > 1500 nM and 0.081 nM, respectively.

Turning to `C=C(C)C(=O)N1CCc2ccc(-c3ncnc4[nH]cc(C(=O)OCC)c34)cc21` [Example 4-21, ethyl 4-[1-(2-methylacryloyl)-2,3-dihydro-1H-indol-6-yl]-7H-pyrrolo[2,3-d]pyrimidine-5-carboxylate], the figures for the IC50 on JAK2 and at JAK3 were > 1500 nM and 2.3 nM, respectively.

In the case of `C=C(C)C(=O)Nc1ccc(C#N)c(-c2ncnc3[nH]cc(C(=O)OCC)c23)c1` [Example 4-22, ethyl 4-{2-cyano-5-[(2-methylacryloyl)amino]phenyl}-7H-pyrrolo[2,3-d]pyrimidine-5-carboxylate], the figures for the IC50 on JAK2 (given as range class) and on JAK3 (given as range class) were > 500 nM and 10 to 500 nM, respectively.

On to `C=C(C)C(=O)n1ccc2ccc(-c3ncnc4[nH]cc(C(=O)OCC)c34)cc21` [Example 4-23, ethyl 4-[1-(2-methylacryloyl)-1H-indol-6-yl]-7H-pyrrolo[2,3-d]pyrimidine-5-carboxylate], for which the IC50 at JAK2 was > 1500 nM; on JAK3, 0.34 nM.

As to `C=C(C)C(=O)Nc1cc(C#N)cc(-c2ncnc3[nH]cc(C(=O)OCC)c23)c1` [Example 4-24, ethyl 4-{3-cyano-5-[(2-methylacryloyl)amino]phenyl}-7H-pyrrolo[2,3-d]pyrimidine-5-carboxylate], the results for the IC50 on JAK2 and at JAK3 were > 1500 nM and 0.068 nM, respectively.

For the molecule `C=C(C)C(=O)Nc1cc(-c2ncnc3[nH]cc(C(=O)OCC)c23)ccc1CO` [Example 4-25, ethyl 4-{4-(hydroxymethyl)-3-[(2-methylacryloyl)amino]phenyl}-7H-pyrrolo[2,3-d]pyrimidine-5-carboxylate], the IC50 at JAK2 is > 1500 nM; at JAK3, 0.11 nM.

On to `C=C(C)C(=O)Nc1cc(C)cc(-c2ncnc3[nH]cc(C(=O)OCC)c23)c1` [Example 4-26, ethyl 4-{3-methyl-5-[(2-methylacryloyl)amino]phenyl}-7H-pyrrolo[2,3-d]pyrimidine-5-carboxylate], for which the IC50 was > 1500 nM on JAK2 and 0.19 nM on JAK3.

`C=C(C)C(=O)Nc1cc(-c2ncnc3[nH]cc(C(=O)OCC)c23)ccc1C#N` [Example 4-27, ethyl 4-{4-cyano-3-[(2-methylacryloyl)amino]phenyl}-7H-pyrrolo[2,3-d]pyrimidine-5-carboxylate]: the IC50 on JAK2 was > 1500 nM; on JAK3, 0.14 nM.

For `C=C(C)C(=O)Nc1cc(-c2ncnc3[nH]cc(C(=O)OCC)c23)ccc1C(=O)N(C)C` [Example 4-28, ethyl 4-{4-(dimethylcarbamoyl)-3-[(2-methylacryloyl)amino]phenyl}-7H-pyrrolo[2,3-d]pyrimidine-5-carboxylate], the half-inhibitory concentration (IC50) on JAK2 is > 1500 nM; on JAK3, 1.5 nM.

In the case of `C=C(C)C(=O)Nc1cc(-c2ncnc3[nH]cc(C(=O)OCC)c23)ccc1S(C)(=O)=O` [Example 4-29, ethyl 4-{3-[(2-methylacryloyl)amino]-4-(methylsulfonyl)phenyl}-7H-pyrrolo[2,3-d]pyrimidine-5-carboxylate], the figures for the IC50 on JAK2 and on JAK3 were > 1500 nM and 0.087 nM, respectively.

As to `C=C(C)C(=O)Nc1cc(-c2ncnc3[nH]cc(C(=O)OCC)c23)ccc1CN(C)C` [Example 4-30, ethyl 4-{4-[(dimethylamino)methyl]-3-[(2-methylacryloyl)amino]phenyl}-7H-pyrrolo[2,3-d]pyrimidine-5-carboxylate], the IC50 is > 1500 nM on JAK2 and 1.5 nM at JAK3.

`C=C(C)C(=O)Nc1cc(-c2ncnc3[nH]cc(C(=O)OCC)c23)ccc1O` [Example 4-31, ethyl 4-{4-hydroxy-3-[(2-methylacryloyl)amino]phenyl}-7H-pyrrolo[2,3-d]pyrimidine-5-carboxylate]: the IC50 at JAK2 is > 1500 nM; at JAK3, 0.11 nM.

In the case of `C=C(C)C(=O)Nc1cc(-c2ncnc3[nH]cc(C(=O)OCC)c23)cnc1OC` [Example 4-32, ethyl 4-{6-methoxy-5-[(2-methylacryloyl)amino]pyridin-3-yl)-7H-pyrrolo[2,3-d]pyrimidine-5-carboxylate], the IC50 at JAK2 was > 1500 nM; at JAK3 it was 0.68 nM.

For `C=C(C)C(=O)Nc1cc(-c2ncnc3[nH]cc(C(=O)OCC)c23)c[nH]c1=O` [Example 4-33, ethyl 4-{5-[(2-methylacryloyl)amino]-6-oxo-1,6-dihydropyridin-3-yl}-7H-pyrrolo[2,3-d]pyrimidine-5-carboxylate], the results for the IC50 on JAK2 and at JAK3 were > 1500 nM and 0.47 nM, respectively.

Take `C=C(C)C(=O)Nc1cc(-c2ncnc3[nH]cc(C(=O)OCC)c23)cn(C)c1=O` [Example 4-34, ethyl 4-{1-methyl-5-[(2-methylacryloyl)amino]-6-oxo-1,6-dihydropyridin-3-yl}-7H-pyrrolo[2,3-d]pyrimidine-5-carboxylate]: the IC50 at JAK2 is > 1500 nM; on JAK3, 1.1 nM.

As for `C=C(C)C(=O)Nc1cc(-c2ncnc3[nH]cc(C(=O)OCC)c23)ccn1` [Example 4-35, ethyl 4-{2-[(2-methylacryloyl)amino]pyridin-4-yl}-7H-pyrrolo[2,3-d]pyrimidine-5-carboxylate], the IC50 on JAK2 is > 1500 nM; at JAK3, 0.049 nM.

Consider `C=C(F)C(=O)Nc1cccc(-c2ncnc3[nH]cc(C(=O)OCC)c23)c1` [Example 5-1, Ethyl 4-{3-[(2-fluoroacryloyl)amino]phenyl}-7H-pyrrolo[2,3-d]pyrimidine-5-carboxylate], for which the IC50 was > 1500 nM at JAK2 and 0.024 nM at JAK3.

For the molecule `CC#CC(=O)Nc1cccc(-c2ncnc3[nH]cc(C(=O)OCC)c23)c1` [Example 5-3, ethyl 4-[3-(but-2-ynoylamino)phenyl]-7H-pyrrolo[2,3-d]pyrimidine-5-carboxylate], the IC50 was > 1500 nM on JAK2 and 0.072 nM on JAK3.

For `CCOC(=O)c1c[nH]c2ncnc(-c3cccc(NC(=O)CC#N)c3)c12` [Example 5-4, ethyl 4-{3-[(cyanoacetyl)amino]phenyl}-7H-pyrrolo[2,3-d]pyrimidine-5-carboxylate], the IC50 on JAK2 (given as range class) and at JAK3 (given as range class) was 10 to 500 nM in each case.

Consider `C=C(Br)C(=O)Nc1cccc(-c2ncnc3[nH]cc(C(=O)OCC)c23)c1` [Example 5-5, ethyl 4-{3-[(2-bromoacryloyl)amino]phenyl}-7H-pyrrolo[2,3-d]pyrimidine-5-carboxylate], for which the IC50 on JAK2 turned out to be 892 nM; at JAK3, 0.043 nM.

Turning to `C=C(Cl)C(=O)Nc1cccc(-c2ncnc3[nH]cc(C(=O)OCC)c23)c1` [Example 5-6, ethyl 4-{3-[(2-chloroacryloyl)amino]phenyl}-7H-pyrrolo[2,3-d]pyrimidine-5-carboxylate], the IC50 was > 1500 nM at JAK2 and 0.22 nM on JAK3.

`CCOC(=O)c1c[nH]c2ncnc(-c3cccc(NC(=O)CCC(C)=O)c3)c12` [Example 5-7, ethyl 4-{3-[(4-oxopentanoyl)amino]phenyl}-7H-pyrrolo[2,3-d]pyrimidine-5-carboxylate]: the IC50 is > 500 nM at JAK2 (given as range class) and 10 to 500 nM at JAK3 (given as range class).

Regarding `CCOC(=O)c1c[nH]c2ncnc(-c3cccc(NC(=O)/C=C/COC)c3)c12` [Example 5-8, ethyl 4-(3-{[(2E)-4-methoxybut-2-enoyl]amino}phenyl)-7H-pyrrolo[2,3-d]pyrimidine-5-carboxylate], the IC50 is > 1500 nM on JAK2 and 2.1 nM on JAK3.
